System: NL-RLuc virus
Assay: Inhibition of HIV replication (NL-RLuc luciferase reporter virus in MT-2 cells)
Type: cell-based
Details: Human immunodeficiency virus 1, MT2, 120 h, read-out: Activity
Description: Inhibition of HIV replication: A recombinant NL-RLuc proviral clone was constructed in which a section of the nef gene form NL4-3 was replaced with the Renilla Luciferase gene. This virus is fully infectious and can undergo multiple cycles of replication in cell culture. In addition, the luciferous reporter provides a simple and easy method for quantitating the extent of virus growth and consequently, the antiviral activity of test compounds. The plasmid pNLRLuc contains the proviral NL-Rluc DNA cloned into pUC18 at the PvuII site. The NL-RLuc virus was prepared by transfection of 293T cells with the plasmid pNLRLuc. Transfections were performed using the LipofectAMINE PLUS kit form Invitrogen (Carlsbad, Calif.) according to the manufacturer and the virus generated was titered in MT-2 cells. For susceptibility analyses, the titrated virus was used to infect MT-2 cells in the presence of compound, and after 5 days of incubation, cells were processed and quantitated for virus growth by the amount of expressed luciferase. Assay media was RPMI 1640 supplemented with 10% heat inactivated fetal bovine serum (FBS), 100 units/ml penicillin G/100 units/ml streptomycin, 10 mM HEPES buffer pH 7.55 and 2 mM L-glutamine. The results form at least 2 experiments were used to calculate the EC50 values. Luciferase was quantitated using the Dual Luciferase kit form Promega (Madison, Wis.). Susceptibility of viruses to compounds was determined by incubation in the presence of serial dilutions of the compound. The 50% effective concentration (EC50) was calculated by using the exponential form of the median effect equation where (Fa)=1/[1+(ED50/drug conc.)^m](Johnson V A, Byington R T. Infectivity Assay. In Techniques in HIV Research. ed. Aldovini A, Walker B D. 71-76. New York: Stockton Press. 1990). Activity equal to A refers to a compound having an EC50≤100 nM, while B and C denote compounds having an EC50 between 100 nM and 1 uM (B) or >1 uM (C).

| SMILES | EC50 |
| --- | --- |
| COCCN(CCOC)Cc1nc(C)c([C@H](OC(C)(C)C)C(=O)O)c(N2CCC(C)(C)CC2)c1-c1ccc(OCCc2ccc(F)cc2)cc1 [Example 93, (S)-2-(6-((Bis(2-methoxyethyl)amino)methyl)-4-(4,4-dimethylpiperidin-1-yl)-5-(4-(4-fluorophenethoxy)phenyl)-2-methylpyridin-3-yl)-2-(tert-butoxy)acetic acid] | < 0.1 µM |
| Cc1nc(N)c(-c2ccc3c(c2)CCN(c2ncnc4c2cnn4C)C3)c(N2CCC(C)(C)CC2)c1[C@H](OC(C)(C)C)C(=O)O [Example 149, (S)-2-(6-Amino-4-(4,4-dimethylpiperidin-1-yl)-2-methyl-5-(2-(1-methyl-1H-pyrazolo[3,4-d]pyrimidin-4-yl)-1,2,3,4-tetrahydroisoquinolin-6-yl)pyridin-3-yl)-2-(tert-butoxy)acetic acid] | < 0.1 µM |
| Cc1nc(CNC=O)c(-c2ccc(OCCc3ccc(F)cc3)cc2)c(N2CCC(C)(C)CC2)c1[C@H](OC(C)(C)C)C(=O)O [Example 107, (S)-2-(tert-Butoxy)-2-(4-(4,4-dimethylpiperidin-1-yl)-5-(4-(4-fluorophenethoxy)phenyl)-6-(formamidomethyl)-2-methylpyridin-3-yl)acetic acid] | < 0.1 µM |
| Cc1ncc(Br)c(N2CCC(C)(C)CC2)c1[C@H](OC(C)(C)C)C(=O)O [Example 62, (S)-2-(5-Bromo-4-(4,4-dimethylpiperidin-1-yl)-2-methylpyridin-3-yl)-2-(tert-butoxy)acetic acid] | < 0.1 µM |
| Cc1cc(F)ccc1CN1CCc2cc(-c3c(C(C)O)nc(C)c([C@H](OC(C)(C)C)C(=O)O)c3N3CCC(C)(C)CC3)ccc2C1 (single isomer, unassigned) [Example 152] | < 0.1 µM |
| Cc1nc(CN2CCC2)c(-c2ccc(OCCc3ccc(F)cc3)cc2)c(N2CCC(C)(C)CC2)c1[C@H](OC(C)(C)C)C(=O)O [Example 81, (S)-2-(6-(Azetidin-1-ylmethyl)-4-(4,4-dimethylpiperidin-1-yl)-5-(4-(4-fluorophenethoxy)phenyl)-2-methylpyridin-3-yl)-2-(tert-butoxy)acetic acid] | < 0.1 µM |
| CCNCc1nc(C)c([C@H](OC(C)(C)C)C(=O)O)c(N2CCC(C)(C)CC2)c1-c1ccc(OCCc2ccc(F)cc2)cc1 [Example 71, (S)-2-(tert-Butoxy)-2-(4-(4,4-dimethylpiperidin-1-yl)-6-((ethylamino)methyl)-5-(4-(4-fluorophenethoxy)phenyl)-2-methylpyridin-3-yl)acetic acid] | < 0.1 µM |
| Cc1ncn(Cc2nc(C)c([C@H](OC(C)(C)C)C(=O)O)c(N3CCC(C)(C)CC3)c2-c2ccc3c(c2)CCN(Cc2ccc(F)cc2C)C3)n1 [Example 144, (S)-2-(tert-Butoxy)-2-(4-(4,4-dimethylpiperidin-1-yl)-5-(2-(4-fluoro-2-methylbenzyl)-1,2,3,4-tetrahydroisoquinolin-6-yl)-2-methyl-6-((3-methyl-1H-1,2,4-triazol-1-yl)methyl)pyridin-3-yl)acetic acid] | < 0.1 µM |
| Cc1nc(COCC2COC2)c([C@H](OC(C)(C)C)C(=O)O)c(N2CCC(C)(C)CC2)c1-c1ccc(OCCc2ccc(F)cc2)cc1 [Example 109, (S)-2-(tert-Butoxy)-2-(4-(4,4-dimethylpiperidin-1-yl)-5-(4-(4-fluorophenethoxy)phenyl)-6-methyl-2-((oxetan-3-ylmethoxy)methyl)pyridin-3-yl)acetic acid] | < 0.1 µM |
| Cc1cc(F)ccc1CN1CCc2cc(-c3c(CN4CCC(O)CC4)nc(C)c([C@H](OC(C)(C)C)C(=O)O)c3N3CCC(C)(C)CC3)ccc2C1 [Example 135, (S)-2-(tert-Butoxy)-2-(4-(4,4-dimethylpiperidin-1-yl)-5-(2-(4-fluoro-2-methylbenzyl)-1,2,3,4-tetrahydroisoquinolin-6-yl)-6-((4-hydroxypiperidin-1-yl)methyl)-2-methylpyridin-3-yl)acetic acid] | < 0.1 µM |
| Cc1ncn(Cc2nc(C)c([C@H](OC(C)(C)C)C(=O)O)c(N3CCC(C)(C)CC3)c2-c2ccc(OCCc3ccc(F)cc3)cc2)n1 [Example 31, (S)-2-(tert-Butoxy)-2-(4-(4,4-dimethylpiperidin-1-yl)-5-(4-(4-fluorophenethoxy)phenyl)-2-methyl-6-((3-methyl-1H-1,2,4-triazol-1-yl)methyl)pyridin-3-yl)acetic acid] | < 0.1 µM |
| Cc1nc(CN2CCS(=O)(=O)CC2)c(-c2ccc(OCCc3ccc(F)cc3)cc2)c(N2CCC(C)(C)CC2)c1[C@H](OC(C)(C)C)C(=O)O [Example 83, (S)-2-(tert-Butoxy)-2-(4-(4,4-dimethylpiperidin-1-yl)-6-((1,1-dioxidothiomorpholino)methyl)-5-(4-(4-fluorophenethoxy)phenyl)-2-methylpyridin-3-yl)acetic acid] | < 0.1 µM |
| Cc1nc(C(F)F)c(-c2ccc(OCCc3ccc(F)cc3)cc2)c(N2CCC(C)(C)CC2)c1[C@H](OC(C)(C)C)C(=O)O [Example 4, (S)-2-(tert-Butoxy)-2-(6-(difluoromethyl)-4-(4,4-dimethylpiperidin-1-yl)-5-(4-(4-fluorophenethoxy)phenyl)-2-methylpyridin-3-yl)acetic acid] | < 0.1 µM |
| Cc1nc(CNCc2ccncc2)c(-c2ccc(OCCc3ccc(F)cc3)cc2)c(N2CCC(C)(C)CC2)c1[C@H](OC(C)(C)C)C(=O)O [Example 74, (S)-2-(tert-Butoxy)-2-(4-(4,4-dimethylpiperidin-1-yl)-5-(4-(4-fluorophenethoxy)phenyl)-2-methyl-6-(((pyridin-4-ylmethyl)amino)methyl)pyridin-3-yl)acetic acid] | < 0.1 µM |
| Cc1cc(F)ccc1CN1CCc2cc(-c3c(CN4CCS(=O)(=O)CC4)nc(C)c([C@H](OC(C)(C)C)C(=O)O)c3N3CCC(C)(C)CC3)ccc2C1 [Example 123, (S)-2-(tert-Butoxy)-2-(4-(4,4-dimethylpiperidin-1-yl)-6-((1,1-dioxidothiomorpholino)methyl)-5-(2-(4-fluoro-2-methylbenzyl)-1,2,3,4-tetrahydroisoquinolin-6-yl)-2-methylpyridin-3-yl)acetic acid] | < 0.1 µM |
| Cc1nc(-c2nc3ccc(Cl)cc3[nH]2)c(-c2ccc(OCCc3ccc(F)cc3)cc2)c(N2CCC(C)(C)CC2)c1[C@H](OC(C)(C)C)C(=O)O [Example 44, (S)-2-(tert-Butoxy)-2-(6-(6-chloro-1H-benzo[d]imidazol-2-yl)-4-(4,4-dimethylpiperidin-1-yl)-5-(4-(4-fluorophenethoxy)phenyl)-2-methylpyridin-3-yl)acetic acid] | < 0.1 µM |
| Cc1nc(CN2CCCCC2)c(-c2ccc(OCCc3ccc(F)cc3)cc2)c(N2CCC(C)(C)CC2)c1[C@H](OC(C)(C)C)C(=O)O [Example 80, (S)-2-(tert-Butoxy)-2-(4-(4,4-dimethylpiperidin-1-yl)-5-(4-(4-fluorophenethoxy)phenyl)-2-methyl-6-(piperidin-1-ylmethyl)pyridin-3-yl)acetic acid] | < 0.1 µM |
| Cc1cc(F)ccc1CN1CCc2cc(-c3c(CN4CCCC(F)C4)nc(C)c([C@H](OC(C)(C)C)C(=O)O)c3N3CCC(C)(C)CC3)ccc2C1 (stereo partly drawn) [Example 131, (2S)-2-(tert-Butoxy)-2-(4-(4,4-dimethylpiperidin-1-yl)-5-(2-(4-fluoro-2-methylbenzyl)-1,2,3,4-tetrahydroisoquinolin-6-yl)-6-((3-fluoropiperidin-1-yl)methyl)-2-methylpyridin-3-yl)acetic acid] | < 0.1 µM |
| Cc1nc(CC2CCCCC2)c(-c2ccc(OCCc3ccc(F)cc3)cc2)c(N2CCC(C)(C)CC2)c1[C@H](OC(C)(C)C)C(=O)O [Example 172, (S)-2-(tert-Butoxy)-2-(6-(cyclohexylmethyl)-4-(4,4-dimethylpiperidin-1-yl)-5-(4-(4-fluorophenethoxy)phenyl)-2-methylpyridin-3-yl)acetic acid] | < 0.1 µM |
| Cc1ncc(-c2ccc(OCCc3ccc(F)cc3)cc2)c(N2CCC(C)(C)CC2)c1[C@H](OC(C)(C)C)C(=O)O [Example 63, (S)-2-(tert-Butoxy)-2-(4-(4,4-dimethylpiperidin-1-yl)-5-(4-(4-fluorophenethoxy)phenyl)-2-methylpyridin-3-yl)acetic acid] | < 0.1 µM |
| COCc1nc(C)c([C@H](OC(C)(C)C)C(=O)O)c(N2CCC(C)(C)CC2)c1-c1ccc(OCCc2ccc(F)cc2)cc1 [Example 3, (S)-2-(tert-Butoxy)-2-(4-(4,4-dimethylpiperidin-1-yl)-5-(4-(4-fluorophenethoxy)phenyl)-6-(methoxymethyl)-2-methylpyridin-3-yl)acetic acid] | < 0.1 µM |
| Cc1nc(COCN2CCCC2=O)c(-c2ccc(OCCc3ccc(F)cc3)cc2)c(N2CCC(C)(C)CC2)c1[C@H](OC(C)(C)C)C(=O)O [Example 26, (S)-2-(tert-Butoxy)-2-(4-(4,4-dimethylpiperidin-1-yl)-5-(4-(4-fluorophenethoxy)phenyl)-2-methyl-6-(((2-oxopyrrolidin-1-yl)methoxy)methyl)pyridin-3-yl)acetic acid] | < 0.1 µM |

Same assay, conditions: Human immunodeficiency virus 1, MT2, 120 h, read-out: EC50 μM

| SMILES | EC50 |
| --- | --- |
| CCNCc1nc(C)c([C@H](OC(C)(C)C)C(=O)O)c(N2CCC(C)(C)CC2)c1-c1ccc(OCCc2ccc(F)cc2)cc1 [Example 71, (S)-2-(tert-Butoxy)-2-(4-(4,4-dimethylpiperidin-1-yl)-6-((ethylamino)methyl)-5-(4-(4-fluorophenethoxy)phenyl)-2-methylpyridin-3-yl)acetic acid] | 0.002 µM |
| Cc1ncn(Cc2nc(C)c([C@H](OC(C)(C)C)C(=O)O)c(N3CCC(C)(C)CC3)c2-c2ccc3c(c2)CCN(Cc2ccc(F)cc2C)C3)n1 [Example 144, (S)-2-(tert-Butoxy)-2-(4-(4,4-dimethylpiperidin-1-yl)-5-(2-(4-fluoro-2-methylbenzyl)-1,2,3,4-tetrahydroisoquinolin-6-yl)-2-methyl-6-((3-methyl-1H-1,2,4-triazol-1-yl)methyl)pyridin-3-yl)acetic acid] | 0.025 µM |
| Cc1nc(COCC2COC2)c([C@H](OC(C)(C)C)C(=O)O)c(N2CCC(C)(C)CC2)c1-c1ccc(OCCc2ccc(F)cc2)cc1 [Example 109, (S)-2-(tert-Butoxy)-2-(4-(4,4-dimethylpiperidin-1-yl)-5-(4-(4-fluorophenethoxy)phenyl)-6-methyl-2-((oxetan-3-ylmethoxy)methyl)pyridin-3-yl)acetic acid] | 0.005 µM |
| Cc1ncn(Cc2nc(C)c([C@H](OC(C)(C)C)C(=O)O)c(N3CCC(C)(C)CC3)c2-c2ccc(OCCc3ccc(F)cc3)cc2)n1 [Example 31, (S)-2-(tert-Butoxy)-2-(4-(4,4-dimethylpiperidin-1-yl)-5-(4-(4-fluorophenethoxy)phenyl)-2-methyl-6-((3-methyl-1H-1,2,4-triazol-1-yl)methyl)pyridin-3-yl)acetic acid] | 0.009 µM |

Reference: patent US10351546B2, “Pyridin-3-yl acetic acid derivatives as inhibitors of human immunodeficiency virus replication” (priority 2015, dated 2019)
